Source: patent publication US12157730B2, “Heteroaryl derivative, method for producing same, and pharmaceutical composition comprising same as effective component” (VORONOI INC., priority 2019, dated 2024)

The molecules below were run against T1, Ba/F3 cell EGFR Exon20 ins NPH (Homo sapiens, UniProt P00533, INS773NPH) (assay: Ba/F3 cell proliferation suppression, EGFR Exon20 ins NPH). Conditions: GI50 class; Ba/F3 cell line with NPH inserted at Exon20 of EGFR; 72 hours.
T1 construct: expressed in transfected cells; host or cells: Ba/F3
Assay type: cell-based
In short: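 Cells (3000–5000/well) plated 24 h before compound, 12-point 3-fold dilutions at 0.3 nM to 50 um final; Ba/F3 lines grown with 5 ng/ml IL-3. Viability by CellTiter-Glo luminescence after 72 h, growth ratio vs control, GI50 from curves; triplicate.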
For `C=CC(=O)Nc1cc(Nc2cc(N3OCC[C@@H]3c3ccc(C)nc3)ncn2)c(OC)cc1N1CCN(C2CCN(C)CC2)CC1` [Example 48, N-(4-methoxy-2-(4-(1-methylpiperidine-4-yl)piperazine-1-yl)-5-((6-((R)-3-(6-methylpyridine-3-yl)isoxazolidine-2-yl)pyrimidine-4-yl)amino)phenyl) acrylamide], the “Ba/F3 (NPH) Activity” value was “B (50 nM ≤ GI50 < 500 nM)”. `C=CC(=O)Nc1cc(Nc2cc(N3OCC[C@@H]3c3cc(F)ccc3F)ncn2)c(OC)cc1N1CCC(N(C)C)CC1` [compound 819, N-(5-((6-((R)-3-(2,5-difluorophenyl)isoxazolidine-2-yl)pyrimidine-4-yl)amino)-2-(4-(dimethylamino)piperidine-1-yl)-4-methoxyphenyl) acrylamide] was tested, and the “Ba/F3 (NPH) Activity” value was “A (GI50 < 50 nM)”. For `C=CC(=O)Nc1cc(Nc2cc(N3OCC[C@@H]3c3cccc(F)c3F)ncn2)c(OC)cc1N1CCC(N2CCN(CCC)CC2)CC1` [compound 342, N-(5-((6-((R)-3-(2,3-difluorophenyl)isoxazolidine-2-yl)pyrimidine-4-yl)amino)-4-methoxy-2-(4-(4-propylpiperazine-1-yl)piperidine-1-yl)phenyl)acrylamide], the “Ba/F3 (NPH) Activity” value was “A (GI50 < 50 nM)”. In the case of `C=CC(=O)Nc1cc(Nc2cc(N3OCC[C@@H]3c3cc(F)ccc3F)ncn2)c(OC)cc1N1CCC(N2CCOCC2)CC1` [compound 766, N-(5-((6-((R)-3-(2,5-difluorophenyl)isoxazolidine-2-yl)pyrimidine-4-yl)amino)-4-methoxy-2-(4-morpholinopiperidine-1-yl)phenyl)acrylamide], the “Ba/F3 (NPH) Activity” value was “A (GI50 < 50 nM)”. For `C=CC(=O)Nc1cc(Nc2cc(N3OCC[C@@H]3Cc3cccc(F)c3C)ncn2)c(OC)cc1N1CCN(CC)CC1` [compound 1003, N-(2-(4-ethylpiperazine-1-yl)-5-((6-(S)-(3-(3-fluoro-2-methylbenzyl)isoxazolidine-2-yl)pyrimidine-4-yl)amino)-4-methoxyphenyl) acrylamide], the “Ba/F3 (NPH) Activity” value was “A (GI50 < 50 nM)”. `C=CC(=O)Nc1cc(Nc2cc(N3OCC[C@@H]3c3ccc(F)cc3F)ncn2)c(OC)cc1N1CCN(C(C)=O)CC1` [compound 343] was tested, and the “Ba/F3 (NPH) Activity” value was “A (GI50 < 50 nM)”. For `C=CC(=O)Nc1cc(Nc2cc(N3OCC[C@@H]3c3ccc(F)c(Cl)c3)ncn2)c(OC)cc1N1CCC(N2CCN(C3CC3)[C@@H](C)C2)CC1` [Example 177, N-(5-((6-((R)-3-(3-chloro-4-fluorophenyl)isoxazolidine-2-yl)pyrimidine-4-yl)amino)-2-(4-((S)-4-cyclopropyl-3-methylpiperazine-1-yl)piperidine-1-yl)-4-methoxyphenyl) acrylamide], the “Ba/F3 (NPH) Activity” value was “A (GI50 < 50 nM)”. In the case of `C=CC(=O)Nc1cc(Nc2cc(N3OCC[C@@H]3c3cccc(F)c3F)ncn2)c(OC)cc1N1CCC(N2CCOCC2)CC1` [compound 920, N-(5-((6-((R)-3-(2,3-difluorophenyl)isoxazolidine-2-yl)pyrimidine-4-yl)amino)-4-methoxy-2-(4-morpholinopiperidine-1-yl)phenyl)acrylamide], the “Ba/F3 (NPH) Activity” value was “A (GI50 < 50 nM)”. With `C=CC(=O)Nc1cc(Nc2cc(N3OCC[C@@H]3Cc3cccc(F)c3C)ncn2)c(OC)cc1N1CC[C@@H](N(C)C)C1` [compound 1002, N-(2-((R)-3-(dimethylamino)pyrolidine-1-yl)-5-((6-((S)-3-(3-fluoro-2-methylbenzyl)isoxazolidine-2-yl)pyrimidine-4-yl)amino)-4-methoxyphenyl) acrylamide] the “Ba/F3 (NPH) Activity” value was “A (GI50 < 50 nM)”. For `C=CC(=O)Nc1cc(Nc2cc(N3OCC[C@@H]3c3cc(F)ccc3F)ncn2)c(OC)cc1N1CCC(N2CCN(CC3CC3)CC2)CC1` [Example 93, N-(2-(4-(4-(cyclopropylmethyl)piperazine-1-yl)piperidine-1-yl)-5-((6-((R)-3-(2,5-difluorophenyl)isoxazolidine-2-yl)pyrimidine-4-yl)amino)-4-methoxyphenyl) acrylamide], the “Ba/F3 (NPH) Activity” value was “A (GI50 < 50 nM)”. `C=CCN1CCN(C2CCN(c3cc(OC)c(Nc4cc(N5OCC[C@@H]5c5ccc(F)c(F)c5)ncn4)cc3NC(=O)C=C)CC2)CC1` [Example 212, N-(2-(4-(4-allylpiperazine-1-yl)piperidine-1-yl)-5-((6-((R)-3-(3,4-difluorophenyl)isoxazolidine-2-yl)pyrimidine-4-yl)amino)-4-methoxyphenyl) acrylamide] was tested, and the “Ba/F3 (NPH) Activity” value was “A (GI50 < 50 nM)”. `C=CC(=O)Nc1cc(Nc2cc(N3OCC[C@@H]3c3cccc(OC)c3)ncn2)c(OC)cc1N1CCC(N2C[C@@H](C)O[C@@H](C)C2)CC1` [compound 727, N-(2-(4-((2S,6R)-2,6-dimethylmorpholino)piperidine-1-yl)-4-methoxy-5-((6-((R)-3-(3-methoxyphenyl)isoxazolidine-2-yl)pyrimidine-4-yl)amino)phenyl)acrylamide] was tested, and the “Ba/F3 (NPH) Activity” value was “A (GI50 < 50 nM)”. In the case of `C=CC(=O)Nc1cc(Nc2cc(N3OCC[C@@H]3c3cccc(F)c3)ncn2)c(OC)cc1N1CCN(C(C)=O)CC1` [compound 831, N-(2-(4-acetylpiperazine-1-yl)-5-((6-((R)-3-(3-fluorophenyl)isoxazolidine-2-yl)pyrimidine-4-yl)amino)-4-methoxyphenyl) acrylamide], the “Ba/F3 (NPH) Activity” value was “A (GI50 < 50 nM)”. `C=CC(=O)Nc1cc(Nc2cc(N3OCC[C@H]3Cc3ccccc3)ncn2)c(OC)cc1N1CCC(N2CCN(C3CC3)CC2)CC1` [compound 956, N-(5-((6-((R)-3-benzylisoxazolidine-2-yl)pyrimidine-4-yl)amino)-2-(4-(4-cyclopropylpiperazine-1-yl)piperidine-1-yl)-4-methoxyphenyl) acrylamide] was tested, and the “Ba/F3 (NPH) Activity” value was “C (500 nM ≤ GI50 < 5000 nM)”. `C=CC(=O)Nc1cc(Nc2cc(N3OCC[C@@H]3c3ccccc3)ncn2)c(OC)cc1N1CCN(C2CCCC2)CC1` [Example 279, N-(2-(4-cyclopentylpiperazine-1-yl)-4-methoxy-5-((6-((R)-3-phenylisoxazolidine-2-yl)pyrimidine-4-yl)amino)phenyl) acrylamide] was tested, and the “Ba/F3 (NPH) Activity” value was “A (GI50 < 50 nM)”. `C=CC(=O)Nc1cc(Nc2cc(N3OCC[C@@H]3c3cccc(Cl)c3F)ncn2)c(OC)cc1N1CCC(N2CCO[C@H](C)C2)CC1` [compound 357, N-(5-((6-((R)-3-(3-chloro-2-fluorophenyl)isoxazolidine-2-yl)pyrimidine-4-yl)amino)-4-methoxy-2-(4-((R)-2-methylmorpholino)piperidine-1-yl)phenyl) acrylamide] was tested, and the “Ba/F3 (NPH) Activity” value was “A (GI50 < 50 nM)”. `C=CC(=O)Nc1cc(Nc2cc(N3OCC[C@@H]3c3cccc(F)c3Cl)ncn2)c(OC)cc1N1CCC(N(C)C)CC1` [compound 553, N-(5-((6-((R)-3-(2-chloro-3-fluorophenyl)isoxazolidine-2-yl)pyrimidine-4-yl)amino)-2-(4-(dimethylamino)piperidine-1-yl)-4-methoxyphenyl) acrylamide] was tested, and the “Ba/F3 (NPH) Activity” value was “A (GI50 < 50 nM)”. `C=CC(=O)Nc1cc(Nc2cc(N3OCC[C@@H]3c3cccc4ccccc34)ncn2)c(OC)cc1N1CCC(N2CCN(C3CCC3)CC2)CC1` [Example 184, N-(2-(4-(4-cyclobutylpiperazine-1-yl)piperidine-1-yl)-4-methoxy-5-((6-((R)-3-(naphthalene-1-yl)isoxazolidine-2-yl)pyrimidine-4-yl)amino)phenyl)acrylamide] was tested, and the “Ba/F3 (NPH) Activity” value was “B (50 nM ≤ GI50 < 500 nM)”. With `C#Cc1cccc([C@H]2CCON2c2cc(Nc3cc(NC(=O)C=C)c(N4CCC(N5CCN(CC)CC5)CC4)cc3OC)ncn2)c1` [compound 652, N-(2-(4-(4-ethylpiperazine-1-yl)piperidine-1-yl)-5-((6-((R)-3-(3-ethynylphenyl)isoxazolidine-2-yl)pyrimidine-4-yl)amino)-4-methoxyphenyl) acrylamide] the “Ba/F3 (NPH) Activity” value was “B (50 nM ≤ GI50 < 500 nM)”. `C=CC(=O)Nc1cc(Nc2cc(N3OCC[C@@H]3c3cccc(C(F)(F)F)c3)ncn2)c(OC)cc1N1CCN(CC)CC1` [compound 452, N-(2-(4-ethylpiperazine-1-yl)-4-methoxy-5-((6-((R)-3-(3-(trifluoromethyl)phenyl)isoxazolidine-2-yl)pyrimidine-4-yl)amino)phenyl) acrylamide] was tested, and the “Ba/F3 (NPH) Activity” value was “A (GI50 < 50 nM)”. In the case of `C=CC(=O)Nc1cc(Nc2cc(N3OCC[C@@H]3c3cccc(C(F)(F)F)c3)ncn2)c(OC)cc1N1CCC(N2C[C@@H]3C[C@H]2CO3)CC1` [compound 944, N-(2-(4-((1S,4S)-2-oxa-5-azabicyclo [2.2.1]heptane-5-yl)piperidine-1-yl)-4-methoxy-5-((6-((R)-3-(3-(trifluoromethyl)phenyl)isoxazolidine-2-yl)pyrimidine-4-yl)amino)phenyl) acrylamide], the “Ba/F3 (NPH) Activity” value was “A (GI50 < 50 nM)”. In the case of `C=CC(=O)Nc1cc(Nc2cc(N3OCC[C@@H]3c3cc(F)cc(F)c3)ncn2)c(OC)cc1N1CCC(N2CCN3CCCC3C2)CC1` (stereo partly drawn) [compound 852, N-(5-((6-((R)-3-(3,5-difluorophenyl)isoxazolidine-2-yl)pyrimidine-4-yl)amino)-2-(4-(hexahydropyrrolo [1,2-a]pyrazine-2(1H)-yl)piperidine-1-yl)-4-methoxyphenyl) acrylamide], the “Ba/F3 (NPH) Activity” value was “A (GI50 < 50 nM)”. For `C=CC(=O)Nc1cc(Nc2cc(N3OCC[C@@H]3Cc3cccc(F)c3Cl)ncn2)c(OC)cc1N1CCN(C2CC2)CC1` [compound 1006, N-(5-((6-((S)-3-(2-chloro-3-fluorobenzyl)isoxazolidine-2-yl)pyrimidine-4-yl)amino)-2-(4-cyclopropylpiperazine-1-yl)-4-methoxyphenyl) acrylamide], the “Ba/F3 (NPH) Activity” value was “A (GI50 < 50 nM)”.
